US10633348B2, “Methods to treat lymphoplasmacytic lymphoma” (Dana-Farber Cancer Institute, Inc., priority 2013, dated 2020)

Key:
Type in all cases: cell-based
MAP3K6 = system: MAP3K6
STLK5 = system: STLK5
TEC = system: TEC
AGK = system: AGK
TLK1 = system: TLK1
eEF2K = system: eEF2K
ATR = system: ATR
NEK1 = system: NEK1
PIP4K2A = system: PIP4K2A
TLK2 = system: TLK2
CLK3 = system: CLK3
ZAP70 = system: ZAP70
IKKa = system: IKKa
ERK5 = system: ERK5
CDC2 = system: CDC2
CDK9 = system: CDK9
RSK3 domain1 = system: RSK3 domain1
PIK3CG = system: PIK3CG
DGKH = system: DGKH
CDK2 = system: CDK2
PITSLRE = experiment: KiNativ kinase profiling in A375 cells; conditions: Lys2, SEQ ID NO 152, 1.0 μM
MAP2K5 = system: MAP2K5
PKD2 = system: PKD2
ERK2 = system: ERK2
MAP3K4 = system: MAP3K4
EPHB1 = system: EPHB1
PIP5K3 = system: PIP5K3
STK33 = system: STK33
DGKQ = system: DGKQ
p70S6Kb = system: p70S6Kb
PAN3 = system: PAN3
CK2a2 = system: CK2a2
CDK11, CDK8 = experiment: KiNativ kinase profiling in A375 cells; conditions: Lys2, SEQ ID NO 20, 1.0 μM
MAP2K3 = system: MAP2K3
PKR = system: PKR
MAP2K1, MAP2K2 = experiment: KiNativ kinase profiling in A375 cells; conditions: Lys2, SEQ ID NO 79, 1.0 μM
MLK3 = system: MLK3
NEK6, NEK7 = experiment: KiNativ kinase profiling in A375 cells; conditions: Lys2, SEQ ID NO 122, 1.0 μM
PFTAIRE1 = system: PFTAIRE1
RSK2 domain1 = system: RSK2 domain1
GSK3B = system: GSK3B
PIP4K2B = system: PIP4K2B
PIK3C2B = system: PIK3C2B
PKN1 = system: PKN1
OCI-Ly3 = experiment: CellTiter-Glo cell viability assay; conditions: Homo sapiens, OCI-Ly3, 72 h
Mec1 = experiment: CellTiter-Glo cell viability assay; conditions: Homo sapiens, 72 hours
CDK4 = system: CDK4
TMD8 = experiment: CellTiter-Glo cell viability assay; conditions: Homo sapiens, 72 hours
OCI-Ly7 = experiment: CellTiter-Glo cell viability assay; conditions: Homo sapiens, 72 hours

CCN1CCN(Cc2ccc(NC(=O)c3ccc(C)c(Oc4cc(N)ncn4)c3)cc2C(F)(F)F)CC1 [(A-4), 3-((6-aminopyrimidin-4-yl)oxy)-N-(4-((4-ethylpiperazin-1-yl)methyl)-3-(trifluoromethyl)phenyl)-4-methylbenzamide]
inhibition of kinase labeling (MAP3K6): −25.0% | inhibition of kinase labeling (STLK5): 5.0% | inhibition of kinase labeling (TEC): −12.8% | inhibition of kinase labeling (AGK): −31.4% | inhibition of kinase labeling (TLK1): 4.9% | inhibition of kinase labeling (eEF2K): −30.5% | inhibition of kinase labeling (ATR): 23.0% | inhibition of kinase labeling (NEK1): −3.0% | inhibition of kinase labeling (PIP4K2A): −26.7% | inhibition of kinase labeling (TLK2): 7.1% | inhibition of kinase labeling (CLK3): −52.8% | inhibition of kinase labeling (ZAP70): 49.2% | inhibition of kinase labeling (IKKa): −17.0% | inhibition of kinase labeling (ERK5): 25.9% | inhibition of kinase labeling (CDC2): −2.3% | inhibition of kinase labeling (CDK9): −16.2% | inhibition of kinase labeling (RSK3 domain1): −32.6% | inhibition of kinase labeling (PIK3CG): −21.1% | inhibition of kinase labeling (DGKH): −6.3% | inhibition of kinase labeling (CDK2): −3.5% | inhibition of kinase labeling (PITSLRE): −10.4% | inhibition of kinase labeling (MAP2K5): 20.5% | inhibition of kinase labeling (PKD2): −6.9% | inhibition of kinase labeling (ERK2): −3.8% | inhibition of kinase labeling (MAP3K4): 19.2% | inhibition of kinase labeling (EPHB1): −1.7% | inhibition of kinase labeling (PIP5K3): 0.9% | inhibition of kinase labeling (STK33): 12.9% | inhibition of kinase labeling (DGKQ): 11.0% | inhibition of kinase labeling (p70S6Kb): 8.2% | inhibition of kinase labeling (PAN3): 12.1% | inhibition of kinase labeling (CK2a2): −18.2% | inhibition of kinase labeling (CDK11, CDK8): 50.0% | inhibition of kinase labeling (MAP2K3): −1.0% | inhibition of kinase labeling (PKR): −28.4% | inhibition of kinase labeling (MAP2K1, MAP2K2): −16.3% | inhibition of kinase labeling (MLK3): 20.7% | inhibition of kinase labeling (NEK6, NEK7): −12.5% | inhibition of kinase labeling (PFTAIRE1): 4.3% | inhibition of kinase labeling (RSK2 domain1): −3.3% | inhibition of kinase labeling (GSK3B): 0.5% | inhibition of kinase labeling (PIP4K2B): −44.7% | inhibition of kinase labeling (PIK3C2B): 24.0% | inhibition of kinase labeling (PKN1): −32.1% | EC50 (OCI-Ly3): 31.9 µM | EC50 (Mec1): 14.3 µM | inhibition of kinase labeling (CDK4): 17.4%

CCN1CCN(Cc2ccc(NC(=O)c3ccc(C)c(Oc4ccnc(Nc5cnn(C)c5)n4)c3)cc2C(F)(F)F)CC1 [(A-14), N-(4-((4-ethylpiperazin-1-yl)methyl)-3-(trifluoromethyl)phenyl)-4-methyl-3-((2-((1-methyl-1H-pyrazol-4-yl)amino)pyrimidin-4-yl)oxy)benzamide]
EC50 (TMD8): 0.045 µM | EC50 (OCI-Ly7): 0.173 µM
